ChEMBL document CHEMBL4265884, “Discovery and biological activity of computer-assisted drug designed Akt pathway inhibitors” (Bioorg Med Chem Lett, 2018)
Active and inactive are the calls of the source. The rule behind the calls is not given here.

How the values were obtained:
[1] = biological target: RAC-alpha serine/threonine-protein kinase (Homo sapiens) (UniProt P31749); test: Inhibition of AKT phosphorylation at Ser473 in human NCI-H2009 cells at 1.25 uM after 24 to 48 hrs by Western blot analysis; type: cell-based
[2] = biological target: RAC-alpha serine/threonine-protein kinase (Homo sapiens) (UniProt P31749); test: Inhibition of AKT phosphorylation at Ser473 in human NCI-H2009 cells at 2.5 uM after 1 to 4 hrs by Western blot analysis; type: cell-based
[3] = test system: NCI-H2009; test: Growth inhibition of human NCI-H2009 cells assessed as reduction in cell number at 1.25 uM after 2 to 4 days by flow cytometric analysis; type: functional, cell-based
[4] = biological target: RAC-alpha serine/threonine-protein kinase (Homo sapiens) (UniProt P31749); test: Inhibition of AKT phosphorylation at Ser473 in […] WBras1 cells at 1.25 uM after 24 hrs by Western blot analysis; type: cell-based
[5] = biological target: RAC-alpha serine/threonine-protein kinase (Homo sapiens) (UniProt P31749); test: Inhibition of AKT phosphorylation at Ser473 in […] WBras1 cells at 1.25 uM after 4 hrs by Western blot analysis; type: cell-based
[6] = test system: NCI-H2009; test: Growth inhibition of human NCI-H2009 cells assessed as reduction in cell number after 2 days by flow cytometric analysis; type: functional, cell-based
[7] = test system: NCI-H2009; test: Growth inhibition of human NCI-H2009 cells assessed as reduction in cell number at 2.5 uM after 2 to 4 days by flow cytometric analysis; type: functional, cell-based
[8] = biological target: RAC-alpha serine/threonine-protein kinase (Homo sapiens) (UniProt P31749); test: Inhibition of AKT phosphorylation at Ser473 in […] WBras1 cells at 25 uM after 4 hrs by Western blot analysis; type: cell-based
[9] = biological target: RAC-alpha serine/threonine-protein kinase (Homo sapiens) (UniProt P31749); test: Inhibition of AKT phosphorylation at Ser473 in human NCI-H2009 cells at 25 uM after 24 hrs by Western blot analysis; type: cell-based
[10] = biological target: RAC-alpha serine/threonine-protein kinase (Homo sapiens) (UniProt P31749); test: Inhibition of AKT phosphorylation at Ser473 in […] WBras1 cells at 25 uM after 24 hrs by Western blot analysis; type: cell-based
[11] = biological target: RAC-alpha serine/threonine-protein kinase (Homo sapiens) (UniProt P31749); test: Inhibition of AKT phosphorylation at Ser473 in […] WBras1 cells at 2.5 uM after 24 hrs by Western blot analysis; type: cell-based
[12] = biological target: RAC-alpha serine/threonine-protein kinase (Homo sapiens) (UniProt P31749); test: Inhibition of AKT phosphorylation at Ser473 in human NCI-H2009 cells at 2.5 uM after 24 to 48 hrs by Western blot analysis; type: cell-based
[13] = biological target: RAC-alpha serine/threonine-protein kinase (Homo sapiens) (UniProt P31749); test: Inhibition of AKT phosphorylation at Ser473 in […] WBras1 cells at 2.5 uM after 4 hrs by Western blot analysis; type: cell-based
[14] = biological target: RAC-alpha serine/threonine-protein kinase (Homo sapiens) (UniProt P31749); test: Inhibition of AKT phosphorylation at Ser473 in human NCI-H2009 cells up to 10 uM after 4 hrs by Western blot analysis; type: cell-based

Sequence of RAC-alpha serine/threonine-protein kinase (Homo sapiens) (P31749 whole entry): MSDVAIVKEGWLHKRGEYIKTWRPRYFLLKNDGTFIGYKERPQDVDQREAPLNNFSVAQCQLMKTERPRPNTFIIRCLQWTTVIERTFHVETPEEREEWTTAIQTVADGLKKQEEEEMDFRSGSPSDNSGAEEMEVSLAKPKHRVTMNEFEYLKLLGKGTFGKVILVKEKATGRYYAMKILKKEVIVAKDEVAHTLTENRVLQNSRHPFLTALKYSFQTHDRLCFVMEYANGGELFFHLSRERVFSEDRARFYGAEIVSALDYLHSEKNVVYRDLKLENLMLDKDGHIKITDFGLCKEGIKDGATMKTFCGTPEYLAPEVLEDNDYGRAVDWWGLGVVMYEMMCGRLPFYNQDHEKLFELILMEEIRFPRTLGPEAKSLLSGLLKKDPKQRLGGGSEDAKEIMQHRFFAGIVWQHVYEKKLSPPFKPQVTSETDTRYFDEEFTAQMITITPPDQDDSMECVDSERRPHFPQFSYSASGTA

SMILES: CCCCCCCCCCCCSC1=NCCCN1
- inhibition [1]: Active
- inhibition [2]: Active
- growth inhibition (GI) [3]: Active
- inhibition [4]: Active
- inhibition [5]: Active
- growth inhibition (GI) [6]: Dose-dependent effect
- IC50 ([6]; NCI-H2009, 48 h): 200 nM

SMILES: C=CCCCCCCCCC1OCCN1CC (stereo unspecified)
- growth inhibition (GI) [7]: inactive
- inhibition [8]: Active
- inhibition [9]: inactive
- inhibition [10]: Active

SMILES: CCCCCCCCCCCCSC(=NC)NC
- growth inhibition (GI) [7]: Active
- inhibition [11]: Active
- inhibition [12]: inactive
- inhibition [13]: Active
- inhibition [14]: inactive
